From publication PMC11310598, “Gestodene, a novel positive allosteric modulator of PAR1, enhances PAR1-mediated human platelet aggregation” (Frontiers in Pharmacology, 2024) come the findings set out here.

The test concerns the target T1, Protease-activated receptor 1 (PAR1) (Homo sapiens, UniProt P25116).
T1 construct: gene F2R; endogenous PAR1 in HT29 cells
T1 sequence (P25116 42-425): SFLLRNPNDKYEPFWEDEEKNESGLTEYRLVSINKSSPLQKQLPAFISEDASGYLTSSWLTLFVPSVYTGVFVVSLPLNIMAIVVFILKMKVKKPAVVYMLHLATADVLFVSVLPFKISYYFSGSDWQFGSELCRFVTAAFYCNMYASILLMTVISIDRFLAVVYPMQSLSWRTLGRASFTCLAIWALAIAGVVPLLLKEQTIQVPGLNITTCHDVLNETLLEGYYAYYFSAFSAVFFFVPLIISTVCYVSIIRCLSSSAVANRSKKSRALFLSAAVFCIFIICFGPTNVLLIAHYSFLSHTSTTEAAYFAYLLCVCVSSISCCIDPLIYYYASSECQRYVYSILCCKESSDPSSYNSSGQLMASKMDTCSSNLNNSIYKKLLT
The test is described as follows: Fluo-4 intracellular calcium, potentiation of thrombin or PAR1-AP response; blocked by vorapaxar. The test is classed as cell-based.

On to `C#C[C@]1(O)C=C[C@H]2[C@@H]3CCC4=CC(=O)CC[C@@H]4[C@H]3CC[C@@]21CC` [gestodene], for which the EC50 (as a rule, the concentration that produces a half-maximal response) stood at 4.54 ± 0.27 µM.
